Legend:
[1] = molecular target: T1, Oxytocin receptor (Homo sapiens, UniProt P30559); assay: biochemical; assay type: cell-based, HEK293-EBNA
T1 sequence (P30559 whole entry): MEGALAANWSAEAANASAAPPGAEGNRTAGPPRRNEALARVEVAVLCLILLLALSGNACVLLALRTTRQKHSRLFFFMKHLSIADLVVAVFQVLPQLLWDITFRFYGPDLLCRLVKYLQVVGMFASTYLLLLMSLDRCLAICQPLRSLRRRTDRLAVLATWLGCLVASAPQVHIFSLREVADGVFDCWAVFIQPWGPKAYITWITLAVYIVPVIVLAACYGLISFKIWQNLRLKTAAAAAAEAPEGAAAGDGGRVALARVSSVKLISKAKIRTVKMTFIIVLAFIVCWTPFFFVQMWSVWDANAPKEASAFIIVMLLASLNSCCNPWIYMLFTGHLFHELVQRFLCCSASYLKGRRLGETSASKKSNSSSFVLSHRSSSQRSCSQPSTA
Description: Displacement of [125I]OVTA antagonist from human oxytocin receptor expressed in HEK293-EBNA cells

[2] = molecular target: T2, Vasopressin V1a receptor (Homo sapiens, UniProt P37288); conditions: HEK293-EBNA, at 10 µM
Target sequence in this assay (P37288 whole entry, looked up): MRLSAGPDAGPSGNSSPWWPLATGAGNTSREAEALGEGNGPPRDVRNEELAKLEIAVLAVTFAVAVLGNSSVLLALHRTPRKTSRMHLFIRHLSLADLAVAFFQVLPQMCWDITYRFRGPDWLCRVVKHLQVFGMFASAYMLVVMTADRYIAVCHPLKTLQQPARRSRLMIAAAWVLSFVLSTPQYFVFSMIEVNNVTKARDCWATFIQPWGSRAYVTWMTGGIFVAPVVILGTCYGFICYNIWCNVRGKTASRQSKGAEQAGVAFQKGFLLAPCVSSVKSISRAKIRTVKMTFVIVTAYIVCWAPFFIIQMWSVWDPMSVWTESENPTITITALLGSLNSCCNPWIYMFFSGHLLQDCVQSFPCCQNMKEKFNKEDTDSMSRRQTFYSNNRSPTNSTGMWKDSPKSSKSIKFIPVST
Description: Displacement of [125I]LVA antagonist from human vasopressin 1a receptor expressed in HEK293-EBNA cells at 10 uM

[3] = molecular target: T2, Vasopressin V1a receptor; assay: Displacement of [125I]LVA antagonist from human vasopressin 1a receptor expressed in HEK293-EBNA cells; assay type: cell-based
Target sequence in this assay (P37288 whole entry): as the sequence (P37288 whole entry, looked up) above

[4] = species: Homo sapiens; assay: Selectivity for human vasopressin V1a receptor over human oxytocin receptor
[5] = Solubility in saline; assay type: physicochemical
[6] = Solubility in aqueous medium; assay type: physicochemical
[7] = aqueous medium, read-out: Solubility

SMILES	Ki [1] [nM]	Ki [3] [nM]	Ratio Ki [4]	also measured
O=C(CN(c1ccccc1)S(=O)(=O)c1ccccc1)N/N=C1\C(=O)Nc2ccccc21	90	–	–	inhibition [2]: < 50%
CCOc1ccc(N(CC(=O)Nc2cccc(Cl)c2C)S(=O)(=O)c2ccccc2)cc1	> 10000	> 10000	–	–
Cc1ccc(N(CC(=O)N/N=C2\C(=O)Nc3ccccc32)S(=O)(=O)c2cccc3ccccc23)cc1	–	–	> 58	–
CN(C)CCCOc1ccc(S(=O)(=O)N(CC(=O)N/N=C2\C(=O)N(CC(N)=O)c3ccccc32)c2ccc(Cl)cc2)cc1	322	1100	3	–
CCOc1ccc(S(=O)(=O)N(c2ccc(C)cc2)C(CO)C(=O)N/N=C2\C(=O)Nc3ccccc32)cc1 (stereo not drawn)	1380	> 10000	–	–
CCOc1ccc(S(=O)(=O)N(CC(=O)N/N=C(\C)c2ccc(O)cc2O)c2ccc(C)cc2)cc1	> 10000	> 10000	–	–
O=C(CN(c1ccc(Cl)cc1)S(=O)(=O)c1cccs1)N/N=C1\C(=O)Nc2ccccc21	37	510	14	–
COc1ccc(S(=O)(=O)N(CC(=O)N/N=C2\C(=O)Nc3ccccc32)c2ccc(C)cc2)cc1	–	–	22	–
CCOc1ccc(S(=O)(=O)N(CC(=O)/N=N/c2c(O)[nH]c3ccccc23)c2ccccc2)cc1	36	> 10000	> 275	–
CCOc1ccc(S(=O)(=O)N(CC(=O)N2Cc3ccccc3CC2C(N)=O)c2ccc(OC)cc2)cc1 (stereo not drawn)	320	570	–	Ratio ki [4]: 1.8
CN(C)CCCNC(=O)CCc1ccc(S(=O)(=O)N(CC(=O)/N=N/c2c(O)[nH]c3ccccc23)c2ccc(Cl)cc2)cc1.O=C(O)/C=C/C(=O)O	–	–	–	solubility [5]: 10000 µg/mL; solubility [6, 7]: 20000 µg/mL
CCOc1ccc(S(=O)(=O)N(CC(=O)/N=N/c2c(O)[nH]c3ccc([N+](=O)[O-])cc23)c2ccccc2)cc1	> 10000	> 10000	–	–
CCOc1ccc(S(=O)(=O)N(CC(=O)N/N=C2\C(=O)Nc3ccccc32)c2ccc(Cl)cc2)cc1	3.9	471	120	–
CCOc1ccc(S(=O)(=O)N(CC(=O)N/N=C(\C)c2ccc3ccccc3c2O)c2ccc(C)cc2)cc1	> 10000	> 10000	–	–
Cc1ccc(N(CC(=O)N/N=C/c2ccccc2O)S(=O)(=O)c2ccccc2)cc1	67	–	–	inhibition [2]: < 50%
CCOc1ccc(S(=O)(=O)N(CC(=O)/N=N/c2c(O)[nH]c3ccc(S(=O)(=O)O)cc23)c2ccc(C)cc2)cc1	> 10000	> 10000	–	–
CN(C)CCCOc1ccc(S(=O)(=O)N(CC(=O)/N=N/c2c(O)[nH]c3ccncc23)c2ccc(Cl)cc2)cc1.O=C(O)C(F)(F)F	–	–	–	solubility [5]: 10000 µg/mL; solubility [6, 7]: 20000 µg/mL
CN(C)CCCNC(=O)CCc1ccc(S(=O)(=O)N(CC(=O)/N=N/c2c(O)[nH]c3ccccc23)c2ccc(Cl)cc2)cc1.O=C(O)C(F)(F)F	–	–	–	solubility [5]: < 1 µg/mL; solubility [6, 7]: 20000 µg/mL
Cc1ccc(N(CC(=O)/N=N/c2c(O)[nH]c3ccccc23)S(=O)(=O)c2ccc(-c3ccccc3)cc2)cc1	104	> 10000	> 96	–
Cc1ccc(N(CC(=O)/N=N/c2c(O)[nH]c3ccccc23)S(=O)(=O)c2ccc3ccccc3c2)cc1	239	> 10000	> 42	–

SMILES	Ki [1] [nM]	Ki [3] [nM]	Ratio Ki [4]	also measured
O=C(CN(c1ccc(Cl)cc1)S(=O)(=O)c1ccccc1)N/N=C/c1ccccc1O	67	–	–	inhibition [2]: < 50%
Cc1ccc(N(CC(=O)NN=C2C(=O)Nc3ccccc32)S(=O)(=O)c2cccc3ccccc23)cc1	174	> 10000	–	–
C/C(=N\NC(=O)CN(c1ccccc1)S(=O)(=O)c1ccccc1)c1ccccc1O	237	> 10000	–	–
COc1ccc(S(=O)(=O)N(CC(=O)Nc2cccc(Cl)c2C)c2ccc(C)cc2)cc1OC	620	–	–	inhibition [2]: < 50%
Cc1ccc(N(CC(=O)Nc2cccc(Cl)c2C)S(=O)(=O)c2ccccc2)cc1	93	> 10000	–	–
CCOc1ccc(S(=O)(=O)N(CCC(=O)/N=N/c2c(O)[nH]c3ccccc23)c2ccc(C)cc2)cc1	> 10000	> 10000	–	–
CCOc1ccc(S(=O)(=O)N(CC(=O)N/N=C(\C)c2c(O)ccc3ccccc23)c2ccc(C)cc2)cc1	> 10000	> 10000	–	–
O=C(CN(c1ccc(Cl)cc1)S(=O)(=O)c1ccccc1)N/N=C1\C(=O)Nc2ccccc21	8.7	611	70	–
CCOc1ccc(S(=O)(=O)N(CC(=O)N/N=C/c2ccc(N(CC)CC)cc2O)c2ccc(C)cc2)cc1	> 10000	> 10000	–	–
CCOc1ccc(S(=O)(=O)N(CC(=O)N2Cc3ccccc3CC2CC(N)=O)c2ccc(OC)cc2)cc1 (stereo not drawn)	510	1600	–	Ratio ki [4]: 3.1
CN(C)CCCOc1ccc(S(=O)(=O)N(CC(=O)/N=N/c2c(O)[nH]c3c(C(=O)O)cccc23)c2ccc(Cl)cc2)cc1	> 10000	> 10000	–	–
CN(C)CCCOc1ccc(S(=O)(=O)N(CC(=O)/N=N/c2c(O)[nH]c3ccccc23)c2ccc(Cl)cc2)cc1.Cl	–	–	–	solubility [5]: 7 µg/mL; solubility [6, 7]: 180 µg/mL
CCOc1ccc(S(=O)(=O)N(CC(=O)N2Cc3ccccc3C2C(N)=O)c2ccc(OC)cc2)cc1 (stereo not drawn)	770	1600	2.1	–
CCC(C)(C)c1ccc(S(=O)(=O)N(CC(=O)N/N=C2\C(=O)Nc3ccccc32)c2ccc(Cl)cc2)cc1	1750	> 10000	–	–
CCOc1ccc(S(=O)(=O)N(CC(=O)N/N=C/c2ncc[nH]2)c2ccc(Cl)cc2)cc1	> 10000	> 10000	–	–
CCCCOc1ccc(S(=O)(=O)N(CC(=O)N/N=C2\C(=O)Nc3ccccc32)c2ccc(Cl)cc2)cc1	18	3980	230	–
CCOc1ccc(S(=O)(=O)N(CC(=O)N/N=C/c2ccccc2O)c2ccc(Cl)cc2)cc1	15	650	43	–
CNCCCC12CCC(c3ccccc31)c1ccccc12.Cl [MAPROTILINE HYDROCHLORIDE]	–	–	–	solubility [5]: 2 µg/mL; solubility ([6]; buffer): 580 µg/mL
CCOc1ccc(S(=O)(=O)N(CC(=O)N/N=C/c2ccccc2NC(C)=O)c2ccc(C)cc2)cc1	> 10000	> 10000	–	–
Cc1ccc(N(CC(=O)N/N=C2\C(=O)Nc3ccccc32)S(=O)(=O)c2ccc(C#N)cc2)cc1	111	6880	62	–

SMILES	Ki [1] [nM]	Ki [3] [nM]	Ratio Ki [4]	also measured
CCOc1ccc(S(=O)(=O)N(CC(=O)/N=N/c2c(O)[nH]c3ccc(I)cc23)c2ccccc2)cc1	> 10000	> 10000	–	–
COc1ccc(S(=O)(=O)N(CC(=O)/N=N/c2c(O)[nH]c3ccccc23)c2ccc(Cl)cc2)cc1OC	18	596	33	–
CCOc1ccc(S(=O)(=O)N(CC(=O)N/N=C/c2ccccn2)c2ccc(Cl)cc2)cc1	2750	1860	0.67	–
CCOc1ccc(S(=O)(=O)N(CC(=O)N2Cc3ccccc3CC2CC(N)=O)c2ccc(C)cc2)cc1 (stereo not drawn)	–	1800	3.6	–
COc1ccc(-c2ccc(S(=O)(=O)N(CC(=O)/N=N/c3c(O)[nH]c4ccccc34)c3ccc(C)cc3)cc2)cc1	> 214	> 10000	> 47	–
COc1ccc(N(CC(=O)Nc2cccc(Cl)c2C)S(=O)(=O)c2ccccc2)cc1	100	300	–	–
CCOc1ccc(S(=O)(=O)N(CC(=O)N/N=C/c2ccccc2N)c2ccc(C)cc2)cc1	> 10000	> 10000	–	–
Cc1ccc(N(CC(=O)N2CCc3ccccc3C2)S(=O)(=O)c2ccccc2)cc1	–	325	–	–
CCCc1ccc(S(=O)(=O)N(CC(=O)N/N=C2\C(=O)Nc3ccccc32)c2ccc(Cl)cc2)cc1	36	2120	60	–
COc1ccc(N(CC(=O)Nc2ccc(Cl)cc2C)S(=O)(=O)c2ccccc2)cc1	800	70	–	–
CCCOc1ccc(S(=O)(=O)N(CC(=O)N/N=C2\C(=O)Nc3ccccc32)c2ccc(C)cc2)cc1	21	3730	175	–
CC(C)(C)c1ccc(S(=O)(=O)N(CC(=O)N/N=C2/C(=O)Nc3ccccc32)c2ccc(Cl)cc2)cc1	61	4940	80	–
CCOc1ccc(S(=O)(=O)N(c2ccc(C)cc2)C(C)C(=O)N/N=C2\C(=O)Nc3ccccc32)cc1 (stereo not drawn)	448	> 10000	–	–
COc1ccc(N(CC(=O)N2CCc3ccccc3C2)S(=O)(=O)c2ccccc2)cc1	160	115	–	–
COC(=O)c1cccc2c1NC(=O)/C2=N\NC(=O)CN(c1ccc(Cl)cc1)S(=O)(=O)c1ccc(OCCCN(C)C)cc1	–	1290	12	–
C/C(=N\NC(=O)CN(c1cccc(Cl)c1)S(=O)(=O)c1ccccc1)c1ccccc1O	4900	600	–	–
CCOc1ccc(S(=O)(=O)N(CC(=O)N/N=C/c2ccccc2O)c2ccc(C)cc2)cc1	60	3210	54	–
COc1ccc(S(=O)(=O)N(CC(=O)N/N=C2/C(=O)Nc3ccccc32)c2ccc(C)cc2)cc1	20	437	–	–
CCCOc1ccc(S(=O)(=O)N(CC(=O)N/N=C2\C(=O)Nc3ccccc32)c2ccc(Cl)cc2)cc1	10	1390	140	–
Cc1c(Cl)cccc1NC(=O)CN(c1ccc(Cl)cc1)S(=O)(=O)c1ccccc1	160	> 10000	–	–
